Laboratory results: PubChem BioAssay AID256 (DTP/NCI, 2004)
Values joined by “and” are separate entries in the source; they are usually repeats but may differ in a detail not shown here. Identical values can stand only once. Inconclusive results and toxic doses are left out. Rule for the calls: active = survival T/C of 150% or more; inactive = T/C below 125% in these data.

Test system: CD2F1 mice, L1210 leukemia ip, survival T/C
Assay: NCI In Vivo Anticancer Drug Screen. Data for tumor model L1210 Leukemia (intraperitoneal) in CD2F1 (CDF1) mice
Details: endpoint: mean survival time, higher = longer survival
Method in brief: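 Read-out first: treated-group measurement over vehicle-control measurement, expressed as a ratio. Animals bore a transplanted tumor line and were dosed with compound or vehicle.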

[1] = dose: 100.0 mg/kg/injection, schedule: Q01DX009 (ip), vehicle: Klucel (hydroxypropylcellulose) (HPC)
[2] = dose: 200.0 mg/kg/injection, schedule: Q01DX009 (ip), vehicle: Klucel (hydroxypropylcellulose) (HPC)
[3] = dose: 100.0 mg/kg/injection, schedule: Q01DX009 (ip), vehicle: saline with Tween-80
[4] = dose: 200.0 mg/kg/injection, schedule: Q01DX009 (ip), vehicle: saline with Tween-80
[5] = dose: 75.0 mg/kg/injection, schedule: Q01DX001 (ip), vehicle: saline
[6] = dose: 100.0 mg/kg/injection, schedule: Q04DX003 (ip), vehicle: saline
[7] = dose: 200.0 mg/kg/injection, schedule: Q04DX003 (ip), vehicle: saline
[8] = dose: 100.0 mg/kg/injection, schedule: Q01DX001 (ip), vehicle: saline
[9] = dose: 200.0 mg/kg/injection, schedule: Q01DX001 (ip), vehicle: saline
[10] = dose: 400.0 mg/kg/injection, schedule: Q01DX001 (ip), vehicle: saline
[11] = dose: 100.0 mg/kg/injection, schedule: Q01DX009 (ip), vehicle: saline
[12] = dose: 200.0 mg/kg/injection, schedule: Q01DX009 (ip), vehicle: saline

Measured: T/C

CCOC(=O)Nc1cc(N)c2n[nH]nc2n1
inactive: dose: 100.0 mg/kg/injection, schedule: Q01DX001 (ip), vehicle: carboxymethylcellulose (CMC) 100 % of control | dose: 200.0 mg/kg/injection, schedule: Q01DX001 (ip), vehicle: carboxymethylcellulose (CMC) 98 % of control | dose: 400.0 mg/kg/injection, schedule: Q01DX001 (ip), vehicle: carboxymethylcellulose (CMC) 102 % of control

CC(C)CCCCCCCCCCCCC(=O)NCC(=O)NC1C(C)OC(Nc2ncnc3nc[nH]c23)C(O)C1O (stereo not drawn)
inactive: dose: 0.25 mg/kg/injection, schedule: Q01DX009 (ip), vehicle: distilled water + Tween-80 100 % of control and 102 % of control | dose: 0.5 mg/kg/injection, schedule: Q01DX009 (ip), vehicle: distilled water + Tween-80 96 % of control and 100 % of control | dose: 1.0 mg/kg/injection, schedule: Q01DX009 (ip), vehicle: distilled water + Tween-80 96 % of control and 104 % of control | dose: 2.0 mg/kg/injection, schedule: Q01DX009 (ip), vehicle: distilled water + Tween-80 98 % of control and 107 % of control | dose: 4.0 mg/kg/injection, schedule: Q01DX009 (ip), vehicle: distilled water + Tween-80 96 % of control and 106 % of control | dose: 8.0 mg/kg/injection, schedule: Q01DX009 (ip), vehicle: distilled water + Tween-80 94 % of control and 102 % of control

COc1ccc(NC(=O)Nc2nccs2)c(Cl)c1
inactive: dose: 50.0 mg/kg/injection, schedule: Q01DX009 (ip), vehicle: Klucel (hydroxypropylcellulose) (HPC) 98 % of control | [1] 98 % of control | dose: 100.0 mg/kg/injection, schedule: Q04DX003 (ip), vehicle: Klucel (hydroxypropylcellulose) (HPC) 106 % of control | [2] 87 % of control | dose: 200.0 mg/kg/injection, schedule: Q04DX003 (ip), vehicle: Klucel (hydroxypropylcellulose) (HPC) 102 % of control | dose: 400.0 mg/kg/injection, schedule: Q04DX003 (ip), vehicle: Klucel (hydroxypropylcellulose) (HPC) 98 % of control

CC(C)(CO)C(O)C(=O)NCCS(=O)(=O)c1ccc(F)cc1 (stereo not drawn)
inactive: dose: 100.0 mg/kg/injection, schedule: Q01DX001 (ip), vehicle: saline with Tween-80 105 % of control | [3] 89 % of control | dose: 200.0 mg/kg/injection, schedule: Q01DX001 (ip), vehicle: saline with Tween-80 95 % of control | [4] 89 % of control | dose: 400.0 mg/kg/injection, schedule: Q01DX001 (ip), vehicle: saline with Tween-80 100 % of control

CN(CCC(=O)N(C)CCC1CCCCC1)CCC1CCCCC1
inactive: [5] 98 % of control

O=c1cc(CBr)c2ccccc2[nH]1
inactive: dose: 25.0 mg/kg/injection, schedule: Q04DX003 (ip), vehicle: saline with Tween-80 103 % of control

COC(=O)Nc1ccccc1
inactive: dose: 100.0 mg/kg/injection, schedule: Q04DX003 (ip), vehicle: saline + alcohol 101 % of control | dose: 200.0 mg/kg/injection, schedule: Q04DX003 (ip), vehicle: saline + alcohol 98 % of control | dose: 400.0 mg/kg/injection, schedule: Q04DX003 (ip), vehicle: saline + alcohol 98 % of control

NCCCCOc1ccc([N+](=O)[O-])cc1Cl
inactive: [5] 100 % of control | dose: 150.0 mg/kg/injection, schedule: Q01DX001 (ip), vehicle: saline 102 % of control

O=C(CCc1ccc(O)cc1)c1c(O)cc(O)cc1O
inactive: dose: 50.0 mg/kg/injection, schedule: Q01DX009 (ip), vehicle: saline + alcohol 110 % of control | dose: 100.0 mg/kg/injection, schedule: Q01DX009 (ip), vehicle: saline + alcohol 96 % of control | dose: 200.0 mg/kg/injection, schedule: Q01DX009 (ip), vehicle: saline + alcohol 89 % of control | dose: 400.0 mg/kg/injection, schedule: Q01DX009 (ip), vehicle: saline + alcohol 98 % of control

COc1ccc(/C=C(/C)C(=O)c2ccccc2)cc1
inactive: [1] 97 % of control | [2] 97 % of control | dose: 400.0 mg/kg/injection, schedule: Q01DX009 (ip), vehicle: Klucel (hydroxypropylcellulose) (HPC) 91 % of control

CCCC(NC(=O)CN)C(=O)O (stereo not drawn)
inactive: [6] 100 % of control | [7] 97 % of control | dose: 400.0 mg/kg/injection, schedule: Q04DX003 (ip), vehicle: saline 102 % of control

S=c1[nH]n(-c2ccccc2)c(=S)s1
inactive: dose: 75.0 mg/kg/injection, schedule: Q04DX003 (ip), vehicle: saline 100 % of control

Cc1cc(C)c2c(C#N)cn(-c3ccccc3)c2n1
inactive: [8] 104 % of control | [9] 100 % of control | [10] 100 % of control

CN(C)CCCNc1cccc2c1C(=O)c1cccc(NCCCN(C)C)c1C2=O
inactive: dose: 8.0 mg/kg/injection, schedule: Q01DX009 (ip), vehicle: acid diluted with saline 102 % of control | dose: 16.0 mg/kg/injection, schedule: Q01DX009 (ip), vehicle: acid diluted with saline 102 % of control | dose: 32.0 mg/kg/injection, schedule: Q01DX009 (ip), vehicle: acid diluted with saline 106 % of control | dose: 64.0 mg/kg/injection, schedule: Q01DX009 (ip), vehicle: acid diluted with saline 100 % of control

CC(C)(C)[N+](=O)[O-]
inactive: dose: 50.0 mg/kg/injection, schedule: Q01DX009 (ip), vehicle: saline 93 % of control | [11] 93 % of control | [12] 93 % of control

COc1ccc(CCNC(=O)Cc2ccc(OC)c(OC)c2)cc1OC
inactive: dose: 50.0 mg/kg/injection, schedule: Q04DX003 (ip), vehicle: saline 93 % of control | [6] 96 % of control | [7] 96 % of control

C1=C(c2ccccc2)CC(/C=C/c2ccccc2)(c2ccccc2)C1c1ccccc1 (stereo not drawn)
inactive: dose: 25.0 mg/kg/injection, schedule: Q01DX009 (ip), vehicle: saline with Tween-80 92 % of control | dose: 50.0 mg/kg/injection, schedule: Q01DX009 (ip), vehicle: saline with Tween-80 98 % of control | [3] 90 % of control

CCCOC(=O)C(SCCN(C)C)c1ccccc1 (stereo not drawn)
inactive: [8] 102 % of control | [11] 93 % of control | [9] 97 % of control | [12] 100 % of control | [10] 94 % of control | dose: 400.0 mg/kg/injection, schedule: Q01DX009 (ip), vehicle: saline 98 % of control

CC(C)OC(=O)Nc1cc(F)c(F)cc1F
inactive: [3] 103 % of control | [4] 103 % of control | dose: 400.0 mg/kg/injection, schedule: Q01DX009 (ip), vehicle: saline with Tween-80 103 % of control

N#CCCn1c2ccccc2c2ccccc21
inactive: dose: 100.0 mg/kg/injection, schedule: Q04DX003 (ip), vehicle: saline with Tween-80 98 % of control | dose: 200.0 mg/kg/injection, schedule: Q04DX003 (ip), vehicle: saline with Tween-80 94 % of control | dose: 400.0 mg/kg/injection, schedule: Q04DX003 (ip), vehicle: saline with Tween-80 94 % of control

CCC(=O)NC1=C(Cl)C(=O)c2ccccc2C1=O
inactive: dose: 5.0 mg/kg/injection, schedule: Q01DX001 (ip), vehicle: saline 91 % of control | dose: 10.0 mg/kg/injection, schedule: Q01DX001 (ip), vehicle: saline 101 % of control | dose: 20.0 mg/kg/injection, schedule: Q01DX001 (ip), vehicle: saline 97 % of control

COC1=C(Br)C(O)C2(C=C1Br)CC(C(=O)NCCCCNC(=O)C1=NOC3(C=C(Br)C(OC)=C(Br)C3O)C1)=NO2 (stereo not drawn)
inactive: dose: 50.0 mg/kg/injection, schedule: Q04DX002 (ip), vehicle: saline with Tween-80 94 % of control | dose: 100.0 mg/kg/injection, schedule: Q04DX002 (ip), vehicle: saline with Tween-80 94 % of control | dose: 200.0 mg/kg/injection, schedule: Q04DX002 (ip), vehicle: saline with Tween-80 97 % of control | dose: 400.0 mg/kg/injection, schedule: Q04DX002 (ip), vehicle: saline with Tween-80 86 % of control
